Data reported in patent US6872805B2 (Bristol-Myers Squibb Company, priority 2000, dated 2005).
pIC50: −log10 of the molar value.

Each compound was assayed against HCV NS3/4A protease complex (Hepatitis C virus genotype 1a, UniProt P27958, C1454S/C1711G) (assay: Recombinant HCV NS3/4A protease complex FRET peptide assay (strain not stated)). Conditions: IC50, NS3/4A protease enzyme assay, strain not stated; activity ranges.
Format: biochemical
Text: The purpose of this in vitro assay was to measure the inhibition of HCV NS3 protease complexes, derived from the BMS, H77C or J416S strains, as described below, by compounds of the present invention.
Serum from an HCV-infected patient was obtained from Dr. T. Wright, San Francisco Hospital. An engineered full-length cDNA template of the HCV genome (BMS strain) was constructed from DNA fragments obtained by reverse transcription-PCR (RT-PCR) of serum RNA and using primers selected on the basis of homology between other genotype 1a strains. […] The infectious clones, H77C (1a genotype) and J4L6S (1b genotype) were obtained from R. Purcell (NIH) and the sequences are published in genebank (AAB67036, see Yanagi, M., Purcell, R. H., Emerson, S. U. and Bukh, J. Proc. Natl. Acad. Sci. U.S.A. 94(16),8738-8743 (1997); AF054247, see Yanagi, M., St Claire, M., Shapiro, M., Emerson, S. U., Purcell, R. H. and Bukh, J, Virology 244 (1), 161-172. (1998)).
The BMS, H77C and J4L6S strains were used for production of recombinant NS3/4A protease complexes. DNA encoding the recombinant HCV NS3/4A protease complex (amino acid 1027 to 1711) for these strains were manipulated as described by P. Gallinari et al. (see Gallinari P, Paolini C, Brennan D, Nardi C, Steinkuhler C, De Francesco R. Biochemistry. 38(17):5620-32, (1999)). Briefly, a three-lysine solubilizing tail was added at the 3′-end of the NS4A coding region. The cysteine in the P1 position of the NS4A-NS4B cleavage site (amino acid 1711) was changed to a glycine to avoid the proteolytic cleavage of the lysine tag. Furthermore, a cysteine to serine mutation was introduced by PCR at amino acid position 1454 to prevent the autolytic cleavage in the NS3 helicase domain. The variant DNA fragment was cloned in the pET21b bacterial expression vector and the NS3/4A complex was expressed in E. coli BL21 (DE3) following the protocol described by P. Gallinari et al. (see Gallinari P, Brennan D, Nardi C, Brunetti M, Tomei L, Steinkuhler C, De Francesco R., J Virol. 72(8):6758-69 (1998)) with modifications. Briefly, NS3/4A expression was induced with 0.5 mM IPTG for 22 hr at 20° C. […] The cells were resuspended in lysis buffer (10 mL/g) consisting of 25 mM HEPES, pH 7.5, 20% glycerol, 500 mM NaCl, 0.5% Triton-X100, 1 ug/ml lysozyme, 5 mM MgCl2, 1 ug/ml DNaseI 5 mM β-Mercaptoethanol (βME), Protease inhibitor—EDTA free, homogenized and incubated for 20 mins at 4° C. The homogenate was sonicated and clarified by ultra-centrifugation at 235000 g for 1 hr at 4° C. Imidazole was added to the supernatant to a final concentration of 15 mM and the pH adjusted to 8.0. The crude protein extract was loaded on a Ni-NTA column pre-equilibrated with buffer B (25 mM HEPES, pH 8.0, 20% glycerol, 500 mM NaCl, 0.5% Triton-X100, 15 mM imidazole, 5 mM βME). The sample was loaded at a flow rate of 1 mL/min. The column was washed with 15 column volumes of buffer C (same as buffer B except with 0.2% Triton-X100). The protein was eluted with 5 column volumes of 200 mM Imidazole in buffer.
NS3/4A protease complex-containing fractions were pooled and loaded on a desalting column Superdex-S200 pre-equilibrated with buffer D (25 mM HEPES, pH 7.5, 20% glycerol, 300 mM NaCl, 0.2% Triton-X100, 10 mM βME). Sample was loaded at a flow rate of 1 mL/min. NS3/4A protease complex-containing fractions were pooled and concentrated to approximately 0.5 mg/ml.

Chain of HCV NS3/4A protease complex (P27958 1027-1711, stated change not applied): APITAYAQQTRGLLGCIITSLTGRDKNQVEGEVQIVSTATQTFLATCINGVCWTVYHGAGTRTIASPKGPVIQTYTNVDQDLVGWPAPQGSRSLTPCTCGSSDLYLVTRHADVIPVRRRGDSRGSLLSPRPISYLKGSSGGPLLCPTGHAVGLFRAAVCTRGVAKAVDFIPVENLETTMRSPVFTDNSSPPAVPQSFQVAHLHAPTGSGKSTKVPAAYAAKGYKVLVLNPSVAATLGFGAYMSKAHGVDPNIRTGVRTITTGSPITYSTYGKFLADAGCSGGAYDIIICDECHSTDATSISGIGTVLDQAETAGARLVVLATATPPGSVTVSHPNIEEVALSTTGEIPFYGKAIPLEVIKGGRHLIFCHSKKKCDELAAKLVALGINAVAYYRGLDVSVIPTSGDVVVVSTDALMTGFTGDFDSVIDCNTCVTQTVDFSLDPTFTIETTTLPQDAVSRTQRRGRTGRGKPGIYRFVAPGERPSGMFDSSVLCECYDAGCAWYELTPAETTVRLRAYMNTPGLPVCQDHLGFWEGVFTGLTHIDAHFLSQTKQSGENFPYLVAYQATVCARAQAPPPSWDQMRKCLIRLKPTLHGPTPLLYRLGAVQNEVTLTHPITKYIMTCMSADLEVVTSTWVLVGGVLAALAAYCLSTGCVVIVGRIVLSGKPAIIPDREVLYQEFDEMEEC
Chain of HCV NS3/4A protease complex (P27958 1027-1711, stated change not applied): as above

| SMILES | pIC50 |
| --- | --- |
| CCC1C[C@]1(NC(=O)[C@@H]1C[C@@H](Oc2cc(-c3ccccc3)nc3cc(OC)ccc23)CN1C(=O)[C@@H](NC(=O)OC(C)(C)C)C(C)C)C(=O)NS(C)(=O)=O (stereo partly shown) [Compound 1] | > 6.30 |
| C=CC1C[C@]1(NC(=O)[C@@H]1C[C@@H](Oc2cc(-c3ccccc3)nc3cc(OC)ccc23)CN1C(=O)[C@@H](NC(=O)OC(C)(C)C)C(C)(C)C)C(=O)N[S+]([O-])C(C)(C)C (stereo partly shown) [Compound 62] | > 5.30 |
| C=CC1C[C@]1(NC(=O)[C@@H]1C[C@@H](Oc2cc(-c3ccccc3)nc3cc(OC)ccc23)CN1C(=O)C(NC(=O)OC(C)(C)C)C(C)(C)C)C(=O)NS(=O)(=O)c1c(C(C)C)cc(C(C)C)cc1C(C)C (stereo partly shown) [Compound 64] | > 5.30 |
| C=CC1C[C@]1(NC(=O)[C@@H]1C[C@@H](Oc2cc(-c3ccccc3)nc3cc(OC)ccc23)CN1C(=O)[C@@H](NC(=O)OC(C)(C)C)C(C)(C)C)C(=O)NS(=O)(=O)c1ccc(-c2ccccc2)cc1 (stereo partly shown) [Compound 65] | > 6.30 |
| C=CC1C[C@]1(NC(=O)[C@@H]1C[C@@H](Oc2cc(-c3ccccc3)nc3cc(OC)ccc23)CN1C(=O)[C@@H](NC(=O)OC(C)(C)C)C(C)(C)C)C(=O)NS(=O)(=O)c1ccc(OC(F)(F)F)cc1 (stereo partly shown) [Compound 66] | > 6.30 |
| CCC1CC1(NC(=O)[C@@H]1C[C@@H](Oc2cc(-c3ccccc3)nc3cc(OC)ccc23)CN1C(=O)[C@H](CC1CCCCC1)NC(=O)OC(C)(C)C)C(=O)NS(C)(=O)=O (stereo partly shown) [Compound 74] | > 5.30 |
| CCC1CC1(NC(=O)[C@@H]1C[C@@H](Oc2cc(-c3ccccc3)nc3cc(OC)ccc23)CN1C(=O)[C@H](CC1CCCCC1)NC(=O)OC(C)(C)C)C(=O)NS(C)(=O)=O (stereo partly shown) [Compound 75] | > 6.30 |
| C=CC1CC1(NC(=O)[C@@H]1C[C@@H](Oc2cc(-c3ccccc3)nc3cc(OC)ccc23)CN1C(=O)[C@H](CC1CCCCC1)NC(=O)OC(C)(C)C)C(=O)NS(C)(=O)=O (stereo partly shown) [Compound 76] | > 6.30 |
| CCC1CC1(NC(=O)[C@@H]1C[C@@H](Oc2cc(-c3ccccc3)nc3cc(OC)ccc23)CN1C(=O)[C@H](CC1CCCCC1)NC(=O)OC(C)(C)C)C(=O)NS(=O)(=O)C1CC1 (stereo partly shown) [Compound 77] | > 4.30 |
| CCC1CC1(NC(=O)[C@@H]1C[C@@H](Oc2cc(-c3ccccc3)nc3cc(OC)ccc23)CN1C(=O)[C@H](CC1CCCCC1)NC(=O)OC(C)(C)C)C(=O)NS(=O)(=O)C1CC1 (stereo partly shown) [Compound 78] | > 7.30 |
| C=CC1CC1(NC(=O)[C@@H]1C[C@@H](Oc2cc(-c3ccccc3)nc3cc(OC)ccc23)CN1C(=O)[C@H](CC1CCCCC1)NC(=O)OC(C)(C)C)C(=O)NS(=O)(=O)C1CC1 (stereo partly shown) [Compound 79] | > 6.30 |
| CCC1CC1(NC(=O)[C@@H]1C[C@@H](Oc2cc(-c3ccccc3)nc3cc(OC)ccc23)CN1C(=O)[C@H](CC1CCCCC1)NC(=O)OC(C)(C)C)C(=O)NS(=O)(=O)C(F)(F)F (stereo partly shown) [Compound 80] | > 5.30 |
| C=CC1CC1(NC(=O)[C@@H]1C[C@@H](Oc2cc(-c3ccccc3)nc3cc(OC)ccc23)CN1C(=O)[C@H](CC1CCCCC1)NC(=O)OC(C)(C)C)C(=O)NS(=O)(=O)C(F)(F)F (stereo partly shown) [Compound 81] | > 5.30 |
| C=CC1CC1(NC(=O)[C@@H]1C[C@@H](Oc2cc(-c3ccccc3)nc3cc(OC)ccc23)CN1C(=O)[C@H](CC1CCCCC1)NC(=O)OC(C)(C)C)C(=O)NS(=O)(=O)C(F)(F)F (stereo partly shown) [Compound 82] | > 4.30 |
| C=CC1CC1(NC(=O)[C@@H]1C[C@@H](Oc2cc(-c3ccccc3)nc3cc(OC)ccc23)CN1C(=O)[C@H](CC(C)C)NC(=O)OC(C)(C)C)C(=O)NS(=O)(=O)C(F)(F)F (stereo partly shown) [Compound 84] | > 5.30 |
| C=CC1CC1(NC(=O)[C@@H]1C[C@@H](Oc2cc(-c3ccccc3)nc3cc(OC)ccc23)CN1C(=O)[C@@H](NC(=O)OC(C)(C)C)C(C)C)C(=O)NS(=O)(=O)C(F)(F)F (stereo partly shown) [Compound 85] | > 6.30 |
| C=CC1CC1(NC(=O)[C@@H]1C[C@@H](Oc2cc(-c3ccccc3)nc3cc(OC)ccc23)CN1C(=O)[C@@H](NC(=O)OC(C)(C)C)C(C)(C)C)C(=O)NS(C)(=O)=O (stereo partly shown) [Compound 88] | > 6.30 |
| C=CC1CC1(NC(=O)[C@@H]1C[C@@H](Oc2cc(-c3ccccc3)nc3cc(OC)ccc23)CN1C(=O)[C@H](CC(C)C)NC(=O)OC(C)(C)C)C(=O)NS(C)(=O)=O (stereo partly shown) [Compound 90] | > 6.30 |
| C=CC1CC1(NC(=O)[C@@H]1C[C@@H](Oc2cc(-c3ccccc3)nc3cc(OC)ccc23)CN1C(=O)[C@@H](NC(=O)OC(C)(C)C)C(C)C)C(=O)NS(=O)(=O)C1CC1 (stereo partly shown) [Compound 92] | > 7.30 |
| C=CC1CC1(NC(=O)[C@@H]1C[C@@H](Oc2cc(-c3ccccc3)nc3cc(OC)ccc23)CN1C(=O)[C@H](CC(C)C)NC(=O)OC(C)(C)C)C(=O)NS(=O)(=O)C1CC1 (stereo partly shown) [Compound 93] | > 7.30 |
| C=CC1CC1(NC(=O)OC(C)(C)C)C(=O)N1C[C@H](Oc2cc(-c3ccccc3)nc3cc(OC)ccc23)CC1C(=O)N[C@]1(C(=O)NS(=O)(=O)C2CC2)C[C@H]1C=C (stereo partly drawn) [Compound 97, {1S-[2S-(1R-cyclopropanesulfonylamino-carbonyl-2S-vinylcyclopropylcarbamoyl)-4R-(7-methoxy-2-phenyl-quinolin-4-yloxy)-pyrrolidine-1-carbonyl]-2-vinyl-cyclopropyl}-carbamic acid tert-butyl ester] | > 6.30 |
| COc1ccc2c(O[C@@H]3C[C@@H](C(=O)NC4(C(=O)NS(=O)(=O)C5CC5)CC45CCC5)N(C(=O)[C@@H](NC(=O)OC(C)(C)C)C(C)C)C3)cc(-c3ccccc3)nc2c1 (stereo partly shown) [Compound 138] | > 5.30 |
| COc1ccc2c(OC3C[C@@H](C(=O)NC4(C(=O)NS(=O)(=O)C5CC5)CC45CCCC5)N(C(=O)[C@@H](NC(=O)OC(C)(C)C)C(C)(C)C)C3)cc(-c3ccccc3)nc2c1 (stereo partly shown) [Compound 139, {1-[2-(1-Cyclopropanesulfonylaminocarbonyl-spiro[2.4]hept-1-ylcarbamoyl)-4-(7-methoxy-2-phenyl-quinolin-4-yloxy)-pyrrolidine-1-carbonyl]-2,2-dimethyl-propyl}carbamic acid tert-butyl ester] | > 5.30 |

Same assay, conditions: IC50, separated isomers of Compound 97; strain not stated

| SMILES | pIC50 |
| --- | --- |
| C=CC1CC1(NC(=O)OC(C)(C)C)C(=O)N1C[C@H](Oc2cc(-c3ccccc3)nc3cc(OC)ccc23)CC1C(=O)N[C@]1(C(=O)NS(=O)(=O)C2CC2)C[C@H]1C=C (stereo partly drawn) [higher RF isomer, {1S-[2S-(1R-cyclopropanesulfonylamino-carbonyl-2S-vinylcyclopropylcarbamoyl)-4R-(7-methoxy-2-phenyl-quinolin-4-yloxy)-pyrrolidine-1-carbonyl]-2-vinyl-cyclopropyl}-carbamic acid tert-butyl ester] | 6.60 |
| C=CC1CC1(NC(=O)OC(C)(C)C)C(=O)N1C[C@H](Oc2cc(-c3ccccc3)nc3cc(OC)ccc23)CC1C(=O)N[C@]1(C(=O)NS(=O)(=O)C2CC2)C[C@H]1C=C (stereo partly drawn) [lower RF isomer, {1S-[2S-(1R-cyclopropanesulfonylamino-carbonyl-2S-vinylcyclopropylcarbamoyl)-4R-(7-methoxy-2-phenyl-quinolin-4-yloxy)-pyrrolidine-1-carbonyl]-2-vinyl-cyclopropyl}-carbamic acid tert-butyl ester] | 7.62 |
